Patent publication US12594289B2, “Potentiation of antibiotic effect” (The University of North Carolina at Chapel Hill, priority 2017, dated 2026)
In brackets after ≈: the same amount, converted by molar mass. Where two headings read alike, the source gives them in different places.

Key:
Assay type in all cases: cell-based, Staphylococcus aureus
S. aureus HG003 [1] = assay: Propidium iodide uptake, membrane permeability (Example 11)
S. aureus HG003 [2] = assay: Killing by permeabilizing molecules in combination with tobramycin over 24 hours (Example 11)
S. aureus HG003 [3] = assay: microbe, parasite or virus in culture; conditions: for MIC: Staphylococcus aureus
S. aureus HG003 [4] = assay: Killing of S. aureus by tobramycin with or without rhamnolipids (Example 4); conditions: tobramycin 58 μg/ml alone
[5] = system: S. aureus HG003, arsenate treated; assay: Killing of low energy (arsenate treated) S. aureus (Example 6); conditions: tobramycin 58 μg/ml, arsenate 1 mM
S. aureus HG003 [6] = assay: Killing in the presence of protein synthesis inhibitor linezolid (Example 8); conditions: tobramycin 58 μg/ml, linezolid 50 μg/ml
[7] = system: S. aureus HG003 menD mutant (SCV)

| SMILES | lethality to S. aureus alone (S. aureus HG003 [1]) | permeabilization of S. aureus (propidium iodide uptake) (S. aureus HG003 [1]) | effect of the presence of P. aeruginosa supernatant on MIC (S. aureus HG003 [3]) | MIC (S. aureus HG003 [3]; HG003) [µg/mL] | MIC (S. aureus HG003 [3]; PA14 / PAO1) [µg/mL] | further results |
| --- | --- | --- | --- | --- | --- | --- |
| CCCCCCCCCCCC(=O)OCC(O)CO (stereo not drawn) [glycerol monolaureate] | not lethal | permeabilize | – | – | – | potentiation of tobramycin killing over 24 hours (S. aureus HG003 [2]): significant potentiation |
| Cc1onc(-c2ccccc2)c1C(=O)N[C@@H]1C(=O)N2[C@@H]1SC(C)(C)[C@@H]2C(=O)O [oxacillin] | – | – | not affected | 0.39 (≈ 0.971 µM) | 0.39 (≈ 0.971 µM) | – |
| CCCCCC/C=C\CCCCCCCC(=O)O [palmitoleic acid] | not lethal | permeabilize | – | – | – | potentiation of tobramycin killing over 24 hours (S. aureus HG003 [2]; in combination with tobramycin): significant potentiation |
| NC[C@H]1O[C@H](O[C@H]2[C@H](O)[C@@H](O[C@H]3O[C@H](CO)[C@@H](O)[C@H](N)[C@H]3O)[C@H](N)C[C@@H]2N)[C@H](N)C[C@@H]1O [tobramycin] | – | – | – | – | 3.12 to 6.25 (≈ 6.68 to 13.4 µM) | MIC (S. aureus HG003 [3]; PA14): 0.39 µg/mL (≈ 0.834 µM); survivors after 12 hours (S. aureus HG003 [4]): 10^4; killing of S. aureus under arsenate-induced low ATP [5]: fails to kill; killing in the presence of linezolid (S. aureus HG003 [6]): fails to kill; susceptibility of the menD mutant [7]: resistant |
| CN[C@H](CC(C)C)C(=O)N[C@H]1C(=O)N[C@@H](CC(N)=O)C(=O)N[C@H]2C(=O)N[C@H]3C(=O)N[C@H](C(=O)N[C@H](C(=O)O)c4cc(O)cc(O)c4-c4cc3ccc4O)[C@H](O)c3ccc(c(Cl)c3)Oc3cc2cc(c3O[C@@H]2O[C@H](CO)[C@@H](O)[C@H](O)[C@H]2O[C@H]2C[C@](C)(N)[C@H](O)[C@H](C)O2)Oc2ccc(cc2Cl)[C@H]1O [vancomycin] | – | – | not affected | 1.25 (≈ 0.863 µM) | 1.25 (≈ 0.863 µM) | – |
